Key:
Assay in all cases: relative viability (nuclei count vs DMSO), 5 days (fraction); higher = more cells survive
GSK126 + Alpelisib = compound: CC[C@H](C)N1C=C(C2=C(C=C(C=C21)C3=CN=C(C=C3)N4CCNCC4)C(=O)NCC5=C(C=C(NC5=O)C)C)C [GSK126] + Cc1nc(NC(=O)N2CCC[C@H]2C(N)=O)sc1-c1ccnc(C(C)(C)C(F)(F)F)c1 [Alpelisib] (partner 2 µM)
Procedure, shortened: (§1)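 After 5 days of treatment, lung cancer cells in 1536-well plates were fixed and stained in a single step (final 0.05% Triton X-100, 1% formaldehyde, 1 ug/ml Hoechst) and their nuclei counted on 4× images. Treatment had been applied by pin tool the day after seeding as one drug alone or as a fixed anchor-drug dose with five library-drug doses (not always all listed) in √10 steps. Relative viability is the nuclei count of treated wells divided by that of vehicle wells, and values are medians of duplicate plates.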

GSK126 + Vorinostat = compound: CC[C@H](C)N1C=C(C2=C(C=C(C=C21)C3=CN=C(C=C3)N4CCNCC4)C(=O)NCC5=C(C=C(NC5=O)C)C)C [GSK126] + O=C(CCCCCCC(=O)Nc1ccccc1)NO [Vorinostat] (partner 1 µM)
Procedure, shortened: as §1

MLN4924 + Tozasertib = compound: NS(=O)(=O)OC[C@@H]1C[C@@H](n2ccc3c(N[C@H]4CCc5ccccc54)ncnc32)C[C@@H]1O [MLN4924] + Cc1cc(Nc2cc(N3CCN(C)CC3)nc(Sc3ccc(NC(=O)C4CC4)cc3)n2)n[nH]1 [Tozasertib] (partner 0.1 µM)
Procedure, shortened: as §1

MLN4924 + Dasatinib = compound: NS(=O)(=O)OC[C@@H]1C[C@@H](n2ccc3c(N[C@H]4CCc5ccccc54)ncnc32)C[C@@H]1O [MLN4924] + Cc1nc(Nc2ncc(C(=O)Nc3c(C)cccc3Cl)s2)cc(N2CCN(CCO)CC2)n1 [Dasatinib] (partner 0.075 µM)
Procedure, shortened: as §1

Cell Line	relative viability (GSK126 + Alpelisib; first compound 0.08 µM)	relative viability (GSK126 + Alpelisib; first compound 0.253 µM)	relative viability (GSK126 + Alpelisib; first compound 0.8 µM)	relative viability (GSK126 + Alpelisib; first compound 2.53 µM)	relative viability (GSK126 + Alpelisib; first compound 8 µM)	relative viability (GSK126 + Vorinostat; first compound 0.08 µM)	relative viability (GSK126 + Vorinostat; first compound 0.253 µM)	relative viability (GSK126 + Vorinostat; first compound 0.8 µM)	relative viability (GSK126 + Vorinostat; first compound 2.53 µM)	relative viability (GSK126 + Vorinostat; first compound 8 µM)	relative viability (MLN4924 + Tozasertib; first compound 0.04 µM)	relative viability (MLN4924 + Tozasertib; first compound 0.1265 µM)	relative viability (MLN4924 + Tozasertib; first compound 0.4 µM)	relative viability (MLN4924 + Tozasertib; first compound 1.265 µM)	relative viability (MLN4924 + Tozasertib; first compound 4 µM)	relative viability (MLN4924 + Dasatinib; first compound 0.04 µM)	relative viability (MLN4924 + Dasatinib; first compound 0.1265 µM)	relative viability (MLN4924 + Dasatinib; first compound 0.4 µM)	relative viability (MLN4924 + Dasatinib; first compound 1.265 µM)	relative viability (MLN4924 + Dasatinib; first compound 4 µM)
HCC-366	0.452	0.342	0.381	0.546	0.409	0.389	0.354	0.29	0.342	0.385	0.151	0.173	0.159	0.0404	0.0333	0.67	0.702	0.967	0.627	0.0684
HARA	0.961	0.804	0.783	0.738	0.788	0.554	0.47	0.551	0.51	0.41	0.101	0.0797	0.0797	0.0484	0.065	0.362	0.358	0.311	0.0814	0.0506
NCI-H1915	1.16	1.05	1.08	1.05	1.09	0.602	0.474	0.542	0.5	0.54	0.399	0.362	0.395	0.212	0.159	0.352	0.353	0.318	0.222	0.177
NCI-H650	1.24	1.11	1.17	1.23	0.993	0.482	0.412	0.411	0.403	0.487	0.584	0.356	0.307	0.161	0.187	0.407	0.418	0.236	0.215	0.193
NCI-H2126	0.789	0.749	0.753	0.737	0.811	0.867	0.789	0.829	0.805	0.783	0.821	0.813	0.514	0.339	0.25	0.647	0.617	0.55	0.201	0.23
NCI-H838	1.12	0.982	0.866	0.845	0.809	0.747	0.688	0.659	0.638	0.69	0.275	0.288	0.204	0.123	0.118	0.268	0.271	0.245	0.199	0.219
EPLC-272H	1.05	0.997	0.919	0.951	0.902	0.346	0.342	0.344	0.29	0.511	0.249	0.159	0.0675	0.132	0.133	0.499	0.448	0.071	0.108	0.11
NCI-H1437	1.07	0.934	0.869	0.824	0.993	0.902	0.885	0.774	0.77	0.763	0.298	0.254	0.176	0.195	0.133	0.276	0.456	0.556	0.235	0.11
NCI-H2405	0.774	0.664	0.827	0.761	0.667	1.12	0.933	1.01	1.05	1.04	0.802	0.644	0.484	0.231	0.266	0.39	0.491	0.428	0.242	0.205
NCI-H1666	1	0.964	1.05	0.962	1.12	1.15	1	0.912	0.978	1.11	0.56	0.635	0.447	0.266	0.27	0.898	0.781	0.503	0.238	0.28
NCI-H1993	0.632	0.72	0.773	0.748	0.661	0.921	0.779	0.79	1.02	1.1	0.489	0.478	0.51	0.449	0.498	0.622	0.524	0.557	0.491	0.51
HCC-78	0.413	0.304	0.287	0.301	0.372	0.429	0.402	0.413	0.437	0.452	0.564	0.458	0.453	0.172	0.141	0.412	0.307	0.604	0.314	0.152
LU99A	0.554	0.512	0.52	0.572	0.594	0.506	0.484	0.443	0.404	0.561	0.251	0.244	0.224	0.178	0.165	0.507	0.485	0.321	0.132	0.16
NCI-H520	0.946	0.758	0.931	0.864	0.783	0.761	0.739	0.656	0.745	0.87	0.461	0.513	0.425	0.204	0.25	0.216	0.225	0.253	0.171	0.173
NCI-H661	0.802	0.638	0.657	0.478	0.58	0.779	0.746	0.734	0.716	0.69	0.343	0.329	0.359	0.338	0.375	1	1.05	0.556	0.256	0.362
NCI-H1975	0.741	0.649	0.607	0.643	0.616	0.708	0.676	0.741	0.645	0.67	0.675	0.836	0.796	0.451	0.241	0.39	0.385	0.483	0.678	0.324
NCI-H1355	0.935	0.836	0.762	0.876	0.901	0.635	0.612	0.667	0.602	0.657	0.549	0.553	0.576	0.3	0.204	0.715	0.792	0.767	0.481	0.216
NCI-H1755	0.927	0.974	0.951	0.866	0.883	0.8	0.719	0.74	0.794	0.58	0.529	0.411	0.291	0.208	0.209	0.417	0.464	0.463	0.237	0.221
NCI-H2009	1.26	1.16	1.17	1.13	1.14	0.822	0.679	0.714	0.672	0.771	0.724	0.433	0.257	0.126	0.0886	0.374	0.261	0.166	0.0589	0.0792
LK-2	1.09	0.993	0.734	1.13	0.876	0.239	0.233	0.411	0.279	0.298	0.175	0.182	0.189	0.209	0.174	0.28	0.261	0.285	0.162	0.196
HCC-827	1.06	1	1.03	0.997	0.982	0.893	0.929	0.798	0.925	0.919	0.415	0.347	0.408	0.165	0.167	0.483	0.608	0.771	0.265	0.187
NCI-H322M	0.819	0.836	0.817	0.78	0.737	0.838	0.884	0.866	0.939	0.939	0.479	0.537	0.434	0.26	0.325	0.311	0.655	0.693	0.27	0.289
NCI-H727	0.649	0.493	0.643	0.636	0.704	1.45	1.16	1.28	1.1	1.19	0.677	0.462	0.432	0.335	0.328	0.374	0.404	0.305	0.293	0.266
NCI-H1944	0.92	0.858	0.839	0.843	0.947	0.656	0.524	0.601	0.566	0.594	0.233	0.226	0.235	0.159	0.117	0.218	0.232	0.23	0.155	0.133
BEN	1.1	0.996	1.04	1.16	0.734	0.658	0.528	0.503	0.617	0.617	0.411	0.308	0.35	0.228	0.222	0.309	0.252	0.198	0.155	0.146
CAL-12T	1.31	1.3	1.08	1.22	1.39	0.852	0.814	0.614	0.777	0.9	0.325	0.365	0.262	0.237	0.167	0.371	0.336	0.332	0.143	0.105

From the supplement of paper PMC10307832
